Assays:
Type in all cases: in vivo
[1] = Roundtable assessment of spikey/rounded sweetness quality (scale 0 to 3); design: key: 0=none; 1=mostly spikey, some rounded; 2=mostly rounded, some spikey; 3=rounded
Protocol: (§1) For other sweetness attributes, the solutions were tested by a panel of at least four individuals that are highly-trained in tasting steviol glycoside solutions. The highly-trained panelists used a roundtable methodology to assess each sweetness attribute. To test each solution, the highly-trained panelists dispensed approximately 2 mL of each solution into their own mouths by transfer pipet, dispersed the solution by moving their tongues, and recorded a value for the particular sweetness attribute being tested. Between tasting solutions, the panelists were able to cleanse their palates with water. For each sweetness attribute, the panelist agreed on a descriptive scale with relative intensities assigned for each sweetness attribute and then recorded the values for each sweetness attribute against this. For example, this roundtable assessment of sweetness linger assigned a scale of 0 to 6 with a score of 0 indicating no sweetness linger and a score of 6 indicating extreme sweetness linger. Roundtable assessment of sweetness linger assigned a scale of 0 to 6 with a score of 0 indicating no sweetness linger and a score of 6 indicating extreme sweetness linger (0=none, 1=trace, 2=slight, 3=moderate, 4=definite, 5=strong, 6=extreme). Roundtable assessment of rounded assigned a scale of 0 to 3 with a score of 0 indicating spikey and a score of 3 indicating desirable rounded (0=none, 1=mostly spikey, some rounded, 2=mostly rounded, some spikey, 3=rounded). Roundtable assessment of mouthfeel assigned a scale of 0 to 2 with a score of 0 indicating water and a score of 2 indicating syrupy (0=water, 1=sucrosey, 2=syrupy). Roundtable assessment of bitterness assigned a scale of 0 to 6 with a score of 0 indicating no bitterness and a score of 6 indicating extreme sweetness linger (0=none, 1=trace, 2=slight, 3=moderate, 4=definite, 5=strong, 6=extreme). Roundtable assessment of off tastes assigned a scale of 0 to 6 with a score of 0 indicating no bitterness and a score of 6 indicating extreme off tastes (0=none, 1=trace, 2=slight, 3=moderate, 4=definite, 5=strong, 6=extreme).
A series of assays were carried out to characterize a sweetness quality of a not preferred spikey quality (a zero value) to a more desirable rounded quality (a 3 value) of steviol glycoside compositions with sensory modifier compound using the roundtable methodology described in Example 1. Rounded quality has the sensory experience of being more like sucrose. […] Solutions of steviol glycosides and sensory modifier compound were prepared at increasing ratios of sensory modifier to steviol glycoside by weight. The steviol glycosides were RebA (4 glycoside groups), RebD (5 glycoside groups), RebM (6 glycoside groups), and OPS1-5(7 glycoside groups) and the sensory modifier compound was monocaffeoylquinic and dicaffeoylquinic acids prepared from yerba mate. […] The solutions were tested for spikey/rounded.

[2] = Roundtable assessment of off taste (scale 0 to 6); design: key to Off taste / off taste score: 0 = none; 1 = trace/faint; 2 = slight; 3 = moderate; 4 = definite; 5 = strong; 6 = extreme
Protocol: as §1
(§2) A series of assays were carried out to characterize off taste (0=none, 1=trace/faint, 2=slight, 3=moderate, 4=definite, 5=strong, 6=extreme) of steviol glycoside compositions with sensory modifier compound using the roundtable methodology described in Example 1. […] Solutions of steviol glycosides and sensory modifier compound were prepared at increasing ratios of sensory modifier to steviol glycoside by weight. The steviol glycosides were RebA (4 glycoside groups), RebD (5 glycoside groups), RebM (6 glycoside groups), and OPS1-5(7 glycoside groups) and the sensory modifier compound was monocaffeoylquinic and dicaffeoylquinic acids prepared from yerba mate. The concentration of steviol glycosides was 700 ppm in each solution. The solutions were tested for off taste. Off taste included astringency, metallic, powdery, numbing, and vapory attributes.

[3] = Roundtable assessment of astringency; design: key: 0 = none; 1 = trace/faint; 2 = slight; 3 = moderate; 4 = definite; 5 = strong; 6 = extreme
Protocol: Roundtable assessment of botanical notes assigned a scale of 0 to 5 with a score of 0 indicating no botanical notes and a score of 5 indicating strong (0=none, 1=trace, 2=slight, 3=moderate, 4=definite, 5=strong).
Solutions of steviol glycosides and sensory modifier compound were prepared at increasing ratios of sensory modifier to steviol glycoside by weight. […] The concentration of steviol glycosides was 700 ppm in each solution. The solutions were tested for astringency.

[4] = Roundtable assessment of bitterness (scale 0 to 6); design: key: 0 = none; 1 = trace/faint; 2 = slight; 3 = moderate; 4 = definite; 5 = strong; 6 = extreme
Protocol: as §1
as §2, with “bitterness” for “off taste”, “bitterness.” for “off taste. Off taste included astringency, metallic, powdery, numbing, and vapory attributes.”

[5] = steviol glycoside 700 ppm + yerba mate mono/dicaffeoylquinic acids 270 ppm
[6] = steviol glycoside 700 ppm + yerba mate mono/dicaffeoylquinic acids 540 ppm
[7] = steviol glycoside 700 ppm + yerba mate mono/dicaffeoylquinic acids 810 ppm
[8] = steviol glycoside 700 ppm, sensory modifier 0 ppm

For `C=C1C[C@@]23CC[C@H]4[C@@](C)(CCC[C@@]4(C)C(=O)O[C@@H]4O[C@H](CO)[C@@H](O)[C@H](O)[C@H]4O[C@@H]4O[C@H](CO)[C@@H](O)[C@H](O)[C@H]4O)[C@@H]2CC[C@]1(O[C@@H]1O[C@H](CO)[C@@H](O)[C@H](O[C@@H]2O[C@H](CO)[C@@H](O)[C@H](O)[C@H]2O)[C@H]1O[C@@H]1O[C@H](CO)[C@@H](O)[C@H](O)[C@H]1O)C3` [RebD, Rebaudioside D], the “Spikey/rounded (spikey = 0) (rounded = 3)” value (“Spikey/rounded” below) [1, 5] was 1, the “Spikey/rounded” value [1, 6] was 3 and the “Spikey/rounded” value [1, 7] was 3. The “Spikey/rounded” value [1, 8] was 2, the Off taste [2, 5] was 2 and the Off taste [2, 8] was 2. It also gave an Astringency [3, 5] of 2, an Astringency [3, 6] of 1 and an Astringency [3, 7] of 2. For the same molecule, the Astringency [3, 8] was “Not observed”, the Bitterness [4, 5] was 0 and the Bitterness [4, 6] was 0. It also gave a Bitterness [4, 7] of 0 and a Bitterness [4, 8] of 0.
